Data from patent US8592166B2, “Hypoxia related genes and proteins for the treatment and diagnosis of pregnancy related complications” (Beth Israel Deaconess Medical Center, Inc., priority 2006, dated 2013).

Tests used:
pregnant mice = assay: COMT knockout mouse model of pre-eclampsia, administration of 2-ME to pregnant mice; type: in vivo; details: administration of 2-ME to mice, FIG. 12
Experimental: FIG. 4 is a schematic of the experimental design for evaluating the role of COMT pre-eclampsia in mice.
FIG. 5 is a graph showing the number of dead embryos on Day 17 of pregnancy in mice with the indicated genotype (WT=wild type; Ko=mice with the COMT gene knocked out; +2me indicates the addition of 2-ME 2 ng/day).

[1] = test system: cytotrophoblasts from the placenta; details: FIG. 1 and WO 2005/110462; cited from earlier work

In the case of `COc1cc2c(cc1O)CC[C@@H]1[C@@H]2CC[C@]2(C)[C@@H](O)CC[C@@H]12` [2-ME, 2-methoxyestradiol], the abnormal development (pregnant mice) is listed as “does not alter the litter size or cause abnormal development”, the litter size (pregnant mice) is listed as “does not alter the litter size” and the “expression of HIF-1α” value [1] is listed as “decreases the expression of HIF-1α”. The “expression of VEGF, PlGF, VEGF Receptor 1 (VEGFR1) and sFlt-1” value [1] was “dramatic decrease”.
